Experimental data: ChEMBL document CHEMBL4024718, “Design and synthesis of quinazolinones as EGFR inhibitors to overcome EGFR resistance obstacle” (Bioorg Med Chem, 2017)
Each block holds one compound with its values, some of them ahead of it.

How the values were obtained:
[1] = tested on: A549; experiment: Antiproliferative activity against human A549 cells harboring wild type EGFR after 48 hrs by SRB assay; assay type: cell-based; details: A549, 48 h
[2] = tested on: NCI-H1975; experiment: cells; assay type: functional, cell-based; details: Homo sapiens, NCI-H1975, 48 h
[3] = tested on: HT-29; experiment: Antiproliferative activity against non-special gene type human HT-29 cells after 48 hrs by SRB assay; assay type: cell-based; details: HT-29, 48 h
[4] = target: Tyrosine-protein kinase ABL1 (Homo sapiens) (UniProt P00519); experiment: Inhibition of N-terminal His6-tagged recombinant human Abl (27 to end residues) expressed in baculovirus infected Sf21 insect cells at 3 uM relative to control
[5] = target: Epidermal growth factor receptor (Homo sapiens, UniProt P00533); experiment: Inhibition of human EGFR preincubated for 5 mins with substrate followed by ATP addition measured after 30 mins by HTRF method; assay type: ADME
[6] = target: Mast/stem cell growth factor receptor Kit (Homo sapiens) (UniProt P10721); experiment: Inhibition of N-terminal GST tagged recombinant human c-Kit (544 to end residues) expressed in baculovirus infected Sf21 insect cells at 3 uM relative to control
[7] = target: Receptor-type tyrosine-protein kinase FLT3 (Homo sapiens) (UniProt P36888); experiment: Inhibition of N-terminal GST tagged recombinant human Flt3 (564 to end residues) at 3 uM relative to control
[8] = target: Hepatocyte growth factor receptor (Homo sapiens) (UniProt P08581); experiment: Inhibition of N-terminal His6-tagged recombinant human Met (974 to end residues) expressed in baculovirus infected Sf21 insect cells at 3 uM relative to control
[9] = target: Aurora kinase A (Homo sapiens) (UniProt O14965); experiment: Inhibition of N-terminal His6-tagged recombinant full-length human Aurora A expressed in Sf21 insect cells at 3 uM relative to control
[10] = target: Dual specificity mitogen-activated protein kinase kinase 1 (Homo sapiens) (UniProt Q02750); experiment: Inhibition of recombinant human N-terminal GST-fused MEK1 expressed in Escherichia coli at 3 uM relative to control
[11] = target: Tyrosine-protein kinase SYK (Homo sapiens) (UniProt P43405); experiment: Inhibition of recombinant full length N-terminal His6-tagged human SYK expressed in baculovirus infected Sf21 insect cells at 3 uM relative to control
[12] = target: Focal adhesion kinase 1 (Homo sapiens) (UniProt Q05397); experiment: Inhibition of N-terminal 6His-tagged recombinant human FAK (411 to 686 residues) expressed in baculovirus infected Sf21 insect cells at 3 uM relative to control
[13] = target: EGFR (epidermal growth factor receptor) kinase domain (Homo sapiens, UniProt P00533); experiment: Inhibition of N-terminal GST-tagged human EGFR kinase domain (696 to end residues) expressed in baculovirus infected Sf21 insect cells at 3 uM relative to control
[14] = target: Insulin receptor (Homo sapiens) (UniProt P06213); experiment: Inhibition of N-terminal 6His-tagged recombinant human insulin receptor (1005 to 1310 residues) expressed in baculovirus infected Sf21 insect cells at 3 uM relative to control
[15] = target: Tyrosine-protein kinase JAK2 (Homo sapiens) (UniProt O60674); experiment: Inhibition of C-terminal His6-tagged recombinant human JAK2 (808 to end residue) expressed in baculovirus infected Sf21 insect cells at 3 uM relative to control
[16] = target: Insulin-like growth factor 1 receptor (Homo sapiens) (UniProt P08069); experiment: Inhibition of N-terminal 6His-tagged recombinant human IGF-1R (959 to end residues) expressed in baculovirus infected Sf21 insect cells at 3 uM relative to control
[17] = target: Epidermal growth factor receptor (Homo sapiens, UniProt P00533, T790M)
[18] = target: Fibroblast growth factor receptor 1 (Homo sapiens) (UniProt P11362); experiment: Inhibition of N-terminal GST-tagged recombinant human FGFR1 (456 to 765 residues) expressed in baculovirus infected Sf21 insect cells at 3 uM relative to control
[19] = target: Tyrosine-protein kinase Blk (Homo sapiens) (UniProt P51451); experiment: Inhibition of human N-terminal His6 tagged recombinant full-length human Blk expressed in Sf21 insect cells at 3 uM relative to control
[20] = target: Vascular endothelial growth factor receptor 1 (Homo sapiens) (UniProt P17948); experiment: Inhibition of recombinant human VEGFR-1 expressed in Spodoptera frugiperda insect cells at 3 uM relative to control
[21] = target: Vascular endothelial growth factor receptor 2 (Homo sapiens) (UniProt P35968); experiment: Inhibition of recombinant human VEGFR-2 at 3 uM relative to control
[22] = target: Cyclin-dependent kinase 1/cyclin B1 (Homo sapiens) (UniProt P06493+P14635); experiment: Inhibition of C-terminal His6-tagged human full length Cdk1/N-terminal GST-tagged human full length Cyclin B expressed in baculovirus infected Sf21 insect cells at 3 uM relative to control
[23] = target: LKB1-STRAD-MO25 complex (Homo sapiens) (UniProt Q15831+Q7RTN6+Q9Y376); experiment: Inhibition of recombinant full-length N-terminal 6-His-tagged human LKB1/GST-tagged MO25alpha/GST-tagged STRADalpha expressed in SF21 cells at 3 uM relative to control
[24] = target: 5'-AMP-activated protein kinase catalytic subunit alpha-1 (Homo sapiens) (UniProt Q13131); experiment: Inhibition of full length recombinant human C-terminal His-tagged AMPKalpha1 expressed in Spodoptera frugiperda insect cells at 3 uM relative to control

Epidermal growth factor receptor (Homo sapiens, UniProt P00533), sequence (P00533 whole entry): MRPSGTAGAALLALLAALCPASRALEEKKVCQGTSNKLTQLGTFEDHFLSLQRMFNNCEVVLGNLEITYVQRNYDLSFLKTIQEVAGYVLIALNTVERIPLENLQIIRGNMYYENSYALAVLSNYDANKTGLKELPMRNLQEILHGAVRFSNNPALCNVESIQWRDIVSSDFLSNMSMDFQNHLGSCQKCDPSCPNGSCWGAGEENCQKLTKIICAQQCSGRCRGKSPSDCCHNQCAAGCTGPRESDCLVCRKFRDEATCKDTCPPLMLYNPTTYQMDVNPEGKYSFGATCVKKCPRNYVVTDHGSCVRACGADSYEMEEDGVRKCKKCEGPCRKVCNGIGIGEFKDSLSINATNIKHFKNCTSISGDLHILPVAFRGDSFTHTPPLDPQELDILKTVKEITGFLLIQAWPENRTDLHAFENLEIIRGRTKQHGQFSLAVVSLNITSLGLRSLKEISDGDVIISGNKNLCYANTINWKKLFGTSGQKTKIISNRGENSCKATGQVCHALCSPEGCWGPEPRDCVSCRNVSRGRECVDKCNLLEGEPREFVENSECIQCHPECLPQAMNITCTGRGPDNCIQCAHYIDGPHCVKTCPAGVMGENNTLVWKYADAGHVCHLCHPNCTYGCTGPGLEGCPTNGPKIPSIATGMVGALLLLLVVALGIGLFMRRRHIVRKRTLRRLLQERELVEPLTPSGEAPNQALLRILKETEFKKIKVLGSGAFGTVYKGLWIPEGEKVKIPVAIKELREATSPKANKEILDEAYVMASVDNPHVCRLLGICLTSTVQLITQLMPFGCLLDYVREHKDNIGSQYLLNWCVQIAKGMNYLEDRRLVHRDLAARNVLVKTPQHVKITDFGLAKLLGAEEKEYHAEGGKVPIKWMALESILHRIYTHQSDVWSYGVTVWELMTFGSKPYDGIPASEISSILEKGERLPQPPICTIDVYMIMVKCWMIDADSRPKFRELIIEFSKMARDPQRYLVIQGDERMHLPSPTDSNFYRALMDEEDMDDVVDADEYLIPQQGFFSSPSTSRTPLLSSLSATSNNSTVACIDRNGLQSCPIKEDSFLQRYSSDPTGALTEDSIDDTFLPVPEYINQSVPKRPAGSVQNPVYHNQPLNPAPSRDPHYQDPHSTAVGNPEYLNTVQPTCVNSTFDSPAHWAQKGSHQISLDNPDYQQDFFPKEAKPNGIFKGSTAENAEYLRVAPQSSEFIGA
Epidermal growth factor receptor (Homo sapiens, UniProt P00533, T790M), sequence (P00533 25-1210 T790M limits assumed): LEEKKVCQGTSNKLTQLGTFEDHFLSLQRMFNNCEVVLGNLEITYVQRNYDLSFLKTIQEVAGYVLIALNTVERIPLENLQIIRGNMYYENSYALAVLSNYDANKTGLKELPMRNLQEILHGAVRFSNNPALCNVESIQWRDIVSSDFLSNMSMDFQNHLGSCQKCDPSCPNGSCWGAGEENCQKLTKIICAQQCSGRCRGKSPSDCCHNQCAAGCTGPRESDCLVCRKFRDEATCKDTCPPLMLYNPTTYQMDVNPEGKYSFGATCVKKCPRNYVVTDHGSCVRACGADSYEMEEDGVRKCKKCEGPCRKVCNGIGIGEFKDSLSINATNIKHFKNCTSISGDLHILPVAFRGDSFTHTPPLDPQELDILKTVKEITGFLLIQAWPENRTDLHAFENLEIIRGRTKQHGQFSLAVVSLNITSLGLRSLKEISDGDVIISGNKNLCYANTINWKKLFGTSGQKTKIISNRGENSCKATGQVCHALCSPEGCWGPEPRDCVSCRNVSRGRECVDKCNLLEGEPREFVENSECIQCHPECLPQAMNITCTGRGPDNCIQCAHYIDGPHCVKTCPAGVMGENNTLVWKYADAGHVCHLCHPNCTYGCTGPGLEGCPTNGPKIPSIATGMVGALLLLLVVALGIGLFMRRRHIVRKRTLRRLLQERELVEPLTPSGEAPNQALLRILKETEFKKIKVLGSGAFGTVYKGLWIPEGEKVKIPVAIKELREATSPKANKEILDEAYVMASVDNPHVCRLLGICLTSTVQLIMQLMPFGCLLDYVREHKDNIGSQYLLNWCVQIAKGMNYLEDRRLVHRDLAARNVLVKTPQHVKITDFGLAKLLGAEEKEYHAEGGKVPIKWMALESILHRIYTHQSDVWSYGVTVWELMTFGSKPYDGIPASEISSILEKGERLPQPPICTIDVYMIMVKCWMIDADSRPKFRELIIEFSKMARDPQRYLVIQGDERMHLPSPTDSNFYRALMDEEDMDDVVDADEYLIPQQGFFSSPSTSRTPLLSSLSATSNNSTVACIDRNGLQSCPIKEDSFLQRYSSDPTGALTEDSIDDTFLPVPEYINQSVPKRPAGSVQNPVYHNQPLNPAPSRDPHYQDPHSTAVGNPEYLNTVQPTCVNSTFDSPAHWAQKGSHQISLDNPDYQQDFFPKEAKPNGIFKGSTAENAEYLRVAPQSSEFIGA
Mast/stem cell growth factor receptor Kit (Homo sapiens), sequence (P10721 whole entry): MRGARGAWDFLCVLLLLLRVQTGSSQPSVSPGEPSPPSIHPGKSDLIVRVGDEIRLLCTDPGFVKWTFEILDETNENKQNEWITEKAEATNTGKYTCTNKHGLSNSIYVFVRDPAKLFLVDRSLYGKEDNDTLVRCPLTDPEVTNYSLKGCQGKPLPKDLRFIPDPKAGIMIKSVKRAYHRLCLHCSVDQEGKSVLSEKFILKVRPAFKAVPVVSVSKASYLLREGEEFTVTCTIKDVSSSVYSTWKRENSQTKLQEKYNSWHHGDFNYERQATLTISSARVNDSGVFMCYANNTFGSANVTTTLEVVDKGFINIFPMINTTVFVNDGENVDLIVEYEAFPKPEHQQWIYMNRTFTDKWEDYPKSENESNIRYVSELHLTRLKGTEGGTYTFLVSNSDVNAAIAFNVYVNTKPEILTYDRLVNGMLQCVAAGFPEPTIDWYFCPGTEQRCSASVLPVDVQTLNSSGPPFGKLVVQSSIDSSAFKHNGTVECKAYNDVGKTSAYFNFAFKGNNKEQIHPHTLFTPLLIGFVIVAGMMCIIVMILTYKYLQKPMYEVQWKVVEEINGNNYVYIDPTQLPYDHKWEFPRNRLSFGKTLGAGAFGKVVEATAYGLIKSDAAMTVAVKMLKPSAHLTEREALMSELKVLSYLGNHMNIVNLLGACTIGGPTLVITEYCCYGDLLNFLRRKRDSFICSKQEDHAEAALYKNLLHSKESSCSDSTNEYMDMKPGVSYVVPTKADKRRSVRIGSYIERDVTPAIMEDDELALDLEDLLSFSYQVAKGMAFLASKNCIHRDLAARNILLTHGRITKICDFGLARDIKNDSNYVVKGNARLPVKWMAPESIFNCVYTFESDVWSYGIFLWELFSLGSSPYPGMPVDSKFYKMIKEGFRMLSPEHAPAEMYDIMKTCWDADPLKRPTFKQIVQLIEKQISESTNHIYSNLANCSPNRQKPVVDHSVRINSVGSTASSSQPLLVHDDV
Vascular endothelial growth factor receptor 2 (Homo sapiens), sequence (P35968 whole entry): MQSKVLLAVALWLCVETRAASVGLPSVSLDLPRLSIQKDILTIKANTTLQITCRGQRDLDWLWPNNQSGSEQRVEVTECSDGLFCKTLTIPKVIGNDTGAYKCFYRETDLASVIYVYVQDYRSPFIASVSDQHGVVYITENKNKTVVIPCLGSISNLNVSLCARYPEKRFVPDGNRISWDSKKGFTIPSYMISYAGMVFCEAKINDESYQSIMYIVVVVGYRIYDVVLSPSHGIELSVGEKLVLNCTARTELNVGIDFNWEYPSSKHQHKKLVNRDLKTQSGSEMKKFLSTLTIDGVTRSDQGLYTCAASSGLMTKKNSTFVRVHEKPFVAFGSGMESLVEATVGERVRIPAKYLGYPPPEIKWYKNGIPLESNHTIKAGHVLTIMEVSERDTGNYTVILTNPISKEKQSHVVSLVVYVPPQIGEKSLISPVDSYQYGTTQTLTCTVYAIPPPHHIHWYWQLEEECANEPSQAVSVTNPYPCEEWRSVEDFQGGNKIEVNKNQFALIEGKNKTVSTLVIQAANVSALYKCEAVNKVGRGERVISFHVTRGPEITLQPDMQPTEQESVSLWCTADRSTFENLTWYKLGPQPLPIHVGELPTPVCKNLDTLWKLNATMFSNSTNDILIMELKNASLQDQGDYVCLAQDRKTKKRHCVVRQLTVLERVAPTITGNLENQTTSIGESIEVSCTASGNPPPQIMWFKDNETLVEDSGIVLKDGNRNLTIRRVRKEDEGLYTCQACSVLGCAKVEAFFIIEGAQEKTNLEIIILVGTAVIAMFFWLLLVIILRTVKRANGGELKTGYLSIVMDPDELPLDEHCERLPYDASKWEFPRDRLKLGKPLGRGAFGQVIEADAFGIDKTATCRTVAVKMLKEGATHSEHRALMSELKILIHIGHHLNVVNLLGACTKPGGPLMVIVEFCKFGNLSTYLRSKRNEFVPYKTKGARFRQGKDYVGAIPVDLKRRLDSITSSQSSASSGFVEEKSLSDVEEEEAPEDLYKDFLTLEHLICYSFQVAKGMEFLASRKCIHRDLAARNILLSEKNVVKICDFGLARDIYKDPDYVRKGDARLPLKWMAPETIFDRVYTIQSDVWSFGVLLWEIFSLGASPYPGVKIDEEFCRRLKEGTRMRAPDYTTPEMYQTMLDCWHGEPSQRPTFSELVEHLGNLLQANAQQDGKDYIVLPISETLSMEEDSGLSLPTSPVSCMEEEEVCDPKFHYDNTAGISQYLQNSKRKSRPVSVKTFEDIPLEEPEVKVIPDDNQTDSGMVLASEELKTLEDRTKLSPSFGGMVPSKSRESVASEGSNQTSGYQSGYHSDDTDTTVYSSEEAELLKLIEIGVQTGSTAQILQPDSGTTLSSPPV
Dual specificity mitogen-activated protein kinase kinase 1 (Homo sapiens), sequence (Q02750 whole entry, the tested form may be a part): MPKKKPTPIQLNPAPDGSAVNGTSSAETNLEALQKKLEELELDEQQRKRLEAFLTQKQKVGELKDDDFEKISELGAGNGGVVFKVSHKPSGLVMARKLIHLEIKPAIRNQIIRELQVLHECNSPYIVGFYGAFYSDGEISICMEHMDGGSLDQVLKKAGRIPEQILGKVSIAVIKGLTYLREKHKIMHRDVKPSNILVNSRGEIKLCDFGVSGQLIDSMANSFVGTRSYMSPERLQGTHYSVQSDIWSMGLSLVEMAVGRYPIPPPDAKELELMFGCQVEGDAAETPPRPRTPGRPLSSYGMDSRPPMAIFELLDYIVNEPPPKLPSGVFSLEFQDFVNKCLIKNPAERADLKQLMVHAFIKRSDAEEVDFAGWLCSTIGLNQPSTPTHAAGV

SMILES: O=c1c2ccccc2nc(-c2ccccc2)n1-c1ccc(F)c(Cl)c1
- IC50 [1]: 5420 nM
- IC50 [2]: 4890 nM
- IC50 [3]: 6120 nM

SMILES: Cc1nnc(-n2c(-c3ccccc3)nc3cc(Cl)ccc3c2=O)s1
- IC50 [1]: 3790 nM
- IC50 [2]: 760 nM
- IC50 [3]: 21200 nM

SMILES: COc1ccc(-c2nnc(-n3c(-c4ccccc4)nc4cc(Cl)ccc4c3=O)s2)cc1
- inhibition [4]: 0%
- IC50 [5]: 320 nM
- inhibition [6]: 0%
- IC50 [1]: 390 nM
- IC50 [2]: 31 nM
- inhibition [7]: 0%
- inhibition [8]: 0%
- IC50 [3]: 388 nM
- inhibition [9]: 0%
- inhibition [10]: 0%
- inhibition [11]: 0%
- inhibition [12]: 0%
- inhibition at 3 µM [13]: 78%
- inhibition [14]: 0%
- inhibition [15]: 0%
- inhibition [16]: 10%
- IC50 [17]: 21 nM
- inhibition [18]: 0%
- inhibition [19]: 0%
- inhibition [20]: 0 to 34%
- inhibition [21]: 42%
- inhibition [22]: 0%
- inhibition [23]: 0%
- inhibition [24]: 0%

- IC50 [1]: 1570 nM
- IC50 [2]: 1670 nM
- IC50 [3]: 4800 nM
SMILES: O=C(Nc1cc(Cl)ccc1C(=O)NCc1ccccc1)c1ccccc1

SMILES: O=c1c2ccc(Cl)cc2nc(-c2ccccc2)n1-c1cccnc1
- IC50 [1]: 3330 nM
- IC50 [2]: 2450 nM
- IC50 [3]: 3800 nM

SMILES: O=c1c2ccccc2nc(-c2ccccc2)n1-c1nnc(C2CC2)s1
- IC50 [1]: 3020 nM
- IC50 [2]: 2380 nM
- IC50 [3]: 3460 nM

- IC50 [1]: 17400 nM
- IC50 [2]: 14400 nM
- IC50 [3]: 3360 nM
SMILES: O=C(Nc1cc(Cl)ccc1C(=O)Nc1ccc(F)cc1)c1ccccc1

SMILES: NCCn1c(-c2ccccc2)nc2cc(Cl)ccc2c1=O
- IC50 [5]: 2110 nM
- IC50 [1]: 2450 nM
- IC50 [2]: 378 nM
- IC50 [3]: 428 nM
- IC50 [17]: 287 nM

SMILES: O=c1c2ccccc2nc(-c2ccccc2)n1-c1nnc(-c2ccccc2Cl)s1
- IC50 [5]: 78200 nM
- IC50 [1]: 100000 nM
- IC50 [2]: 5230 nM
- IC50 [3]: 32500 nM
- IC50 [17]: 7230 nM

- IC50 [1]: 1870 nM
SMILES: C=CC(=O)Nc1cccc(Oc2nc(Nc3ccc(N4CCN(C)CC4)cc3OC)ncc2Cl)c1

SMILES: O=c1c2ccc(Cl)cc2nc(-c2ccccc2)n1-c1cccc(Cl)c1
- IC50 [1]: 5300 nM
- IC50 [2]: 2450 nM
- IC50 [3]: 4500 nM

SMILES: Nc1ccccc1-n1c(-c2ccccc2)nc2cc(Cl)ccc2c1=O
- IC50 [1]: 18300 nM
- IC50 [2]: 4870 nM
- IC50 [3]: 50000 nM

SMILES: O=c1c2ccc(Cl)cc2nc(-c2ccccc2)n1-c1nnc(-c2ccccc2)s1
- IC50 [5]: 1680 nM
- IC50 [1]: 2090 nM
- IC50 [2]: 213 nM
- IC50 [3]: 2720 nM
- IC50 [17]: 1120 nM

SMILES: COc1ccc(-n2c(-c3ccccc3)nc3cc(Cl)ccc3c2=O)cc1
- IC50 [1]: 2870 nM
- IC50 [2]: 2880 nM
- IC50 [3]: 3920 nM

SMILES: O=c1c2ccc(Cl)cc2nc(-c2ccccc2)n1-c1nnc(C2CC2)s1
- IC50 [5]: 530 nM
- IC50 [1]: 717 nM
- IC50 [2]: 129 nM
- IC50 [3]: 732 nM
- IC50 [17]: 102 nM

SMILES: O=C(Nn1c(-c2ccccc2)nc2ccccc2c1=O)c1ccc(Br)cc1
- IC50 [5]: 420 nM
- IC50 [1]: 523 nM
- IC50 [2]: 810 nM
- IC50 [3]: 1150 nM
- IC50 [17]: 780 nM

SMILES: CC(=O)c1ccccc1-n1c(-c2ccccc2)nc2cc(Cl)ccc2c1=O
- IC50 [5]: 34300 nM
- IC50 [1]: 50000 nM
- IC50 [2]: 846 nM
- IC50 [3]: 50000 nM
- IC50 [17]: 720 nM
